Tests used:
Experiment in all cases: relative viability (nuclei count vs DMSO), 5 days (fraction); higher = more cells survive
[1] = compound: CC(C)C[C@H](NC(=O)[C@H](Cc1ccccc1)NC(=O)c1cnccn1)B(O)O [Bortezomib] + COc1cccc2cc(-c3nc([C@H]4CC[C@H](C(=O)O)CC4)n4ncnc(N)c34)[nH]c12 [OSI-027] (partner 0.5 µM)
Summary of the method: (§1)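 Nuclei were stained with Hoechst during a one-step fixation (final 0.05% Triton X-100, 1% formaldehyde, 1 ug/ml Hoechst) carried out 5 days after dosing, then counted on 4× images. The cells, lung cancer lines in 1536-well plates, had been dosed by pin tool the day after seeding with one drug alone or a fixed anchor-drug dose plus five library-drug doses (not always all listed) in √10 steps. Relative viability is the nuclei count in treated wells divided by that in vehicle wells, and each value is the median of duplicate plates.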

[2] = compound: COC1=CC(c2cc3ccccc3[nH]2)=N/C1=C\c1[nH]c(C)cc1C [Obatoclax] + C[C@]1(O)C[C@@H](c2nc(-c3ccc4ccc(-c5ccccc5)nc4c3)c3c(N)nccn32)C1 [Linsitinib] (partner 1 µM)
Summary of the method: as §1

[3] = compound: COC1=CC(c2cc3ccccc3[nH]2)=N/C1=C\c1[nH]c(C)cc1C [Obatoclax] + CC(=O)Nc1cccc(-n2c(=O)n(C3CC3)c(=O)c3c(Nc4ccc(I)cc4F)n(C)c(=O)c(C)c32)c1 [Trametinib] (partner 0.02 µM)
Summary of the method: as §1

[4] = compound: COC1=CC(c2cc3ccccc3[nH]2)=N/C1=C\c1[nH]c(C)cc1C [Obatoclax] + CC(=O)c1c(C)c2cnc(Nc3ccc(N4CCNCC4)cn3)nc2n(C2CCCC2)c1=O [Palbociclib] (partner 0.5 µM)
Summary of the method: as §1

Cell Line	relative viability ([1]; first compound 0.0002 µM)	relative viability ([1]; first compound 0.000632 µM)	relative viability ([1]; first compound 0.002 µM)	relative viability ([1]; first compound 0.006325 µM)	relative viability ([1]; first compound 0.02 µM)	relative viability ([2]; first compound 0.01 µM)	relative viability ([2]; first compound 0.03162 µM)	relative viability ([2]; first compound 0.1 µM)	relative viability ([2]; first compound 0.3162 µM)	relative viability ([2]; first compound 1 µM)	relative viability ([3]; first compound 0.01 µM)	relative viability ([3]; first compound 0.03162 µM)	relative viability ([3]; first compound 0.1 µM)	relative viability ([3]; first compound 0.3162 µM)	relative viability ([3]; first compound 1 µM)	relative viability ([4]; first compound 0.01 µM)	relative viability ([4]; first compound 0.03162 µM)	relative viability ([4]; first compound 0.1 µM)	relative viability ([4]; first compound 0.3162 µM)	relative viability ([4]; first compound 1 µM)
LXF-289	0.773	0.754	0.803	0.0966	0.0619	0.903	0.969	0.961	0.93	0.994	0.642	0.663	0.671	0.707	0.671	0.588	0.609	0.588	0.629	0.613
NCI-H23	0.579	0.335	0.542	0.282	0.138	0.588	0.598	0.647	0.606	0.598	0.384	0.442	0.451	0.357	0.363	0.49	0.548	0.496	0.475	0.39
NCI-H322M	0.524		0.519	0.288	0.27	0.943	0.958	0.941	0.893	0.89	0.547	0.482	0.71	0.535	0.669	0.491	0.485	0.58	0.501	0.452
NCI-H358	0.849	0.547	0.703	0.0722	0.0716	0.735	0.504	0.394	0.344	0.278	0.129	0.127	0.165	0.135	0.114	0.13	0.127	0.142	0.114	0.117
NCI-H441	0.648	0.38	0.233	0.154	0.188	0.683	0.551	0.394	0.52	0.435	0.505	0.353	0.427	0.27	0.194	0.231	0.214	0.261	0.167	0.155
NCI-H460	0.561	0.478	0.64	0.126	0.021	0.719	0.864	0.582	0.0258	0.0195	0.151	0.132	0.232	0.0458	0.0584	0.153	0.14	0.201	0.055	0.0295
NCI-H520	0.193	0.235	0.196	0.272	0.223	0.925	0.891	1.12	0.583	0.262	0.675	0.777	0.86	0.439	0.269	0.287	0.23	0.331	0.187	0.151
NCI-H647	0.574	0.437	0.483	0.0304	0.0382	1.14	1.13	1.11	0.317	0.254	0.406	0.475	0.422	0.22	0.127	0.458	0.321	0.398	0.151	0.0783
NCI-H661	0.659	0.658	0.688	0.33	0.183	0.598	0.564	0.66	0.529	0.735	0.585	0.553	0.593	0.493	0.473	0.393	0.397	0.465	0.413	0.34
NCI-H727	0.557	0.515	0.494	0.467	0.378	0.372	0.28	0.343	0.267	0.231	0.41	0.393	0.414	0.404	0.391	0.608	0.618	0.779	0.62	0.646
NCI-H838	0.355	0.363	0.44	0.178	0.131	0.984	1.06	0.862	0.717	0.935	0.548	0.559	0.346	0.493	0.248	0.223	0.219	0.19	0.195	0.146
NCI-H1355	0.386	0.356	0.44	0.22	0.163	0.867	0.87	0.802	0.739	0.75	0.403	0.462	0.439	0.35	0.454	0.398	0.391	0.371	0.387	0.369
NCI-H1395	0.574	0.529	0.639	0.353	0.271	1.23	0.922	0.884	0.926	0.526	0.914	0.999	0.931	0.94	0.737	0.554	0.602	0.597	0.6	0.439
NCI-H1437	0.86	0.825	0.871	0.138	0.132	1.01	0.988	0.979	0.912	0.705	0.512	0.471	0.642	0.498	0.359	0.306	0.311	0.324	0.31	0.237
NCI-H1651	0.661	0.641	0.416	0.109	0.11	0.915	0.961	0.91	0.432	0.271	0.847	0.811	0.846	0.845	0.836	0.522	0.501	0.524	0.553	0.554
NCI-H1666	0.802	0.869	0.945	0.43	0.324	0.876	0.822	0.745	0.313	0.275	0.753	0.849	0.949	0.805	0.637	0.593	0.692	0.659	0.638	0.592

Cell Line	relative viability ([1]; first compound 0.0002 µM)	relative viability ([1]; first compound 0.000632 µM)	relative viability ([1]; first compound 0.002 µM)	relative viability ([1]; first compound 0.006325 µM)	relative viability ([1]; first compound 0.02 µM)	relative viability ([2]; first compound 0.01 µM)	relative viability ([2]; first compound 0.03162 µM)	relative viability ([2]; first compound 0.1 µM)	relative viability ([2]; first compound 0.3162 µM)	relative viability ([2]; first compound 1 µM)	relative viability ([3]; first compound 0.01 µM)	relative viability ([3]; first compound 0.03162 µM)	relative viability ([3]; first compound 0.1 µM)	relative viability ([3]; first compound 0.3162 µM)	relative viability ([3]; first compound 1 µM)	relative viability ([4]; first compound 0.01 µM)	relative viability ([4]; first compound 0.03162 µM)	relative viability ([4]; first compound 0.1 µM)	relative viability ([4]; first compound 0.3162 µM)	relative viability ([4]; first compound 1 µM)
NCI-H1734	0.635	0.452	0.541	0.164	0.133	0.808	0.799		0.728	0.749	0.636	0.744	0.688	0.681	0.689	0.3	0.338	0.337	0.32	0.303
NCI-H1755	0.706	0.568	0.68	0.27	0.228	0.986	0.996	0.96	0.991	1.03	0.673	0.769	0.77	0.752	0.799	0.427	0.447	0.458	0.497	0.426
NCI-H1792	0.687	0.577	0.563	0.654	0.497	0.667	0.502		0.48	0.561	0.365	0.302	0.417	0.509	0.411	0.626	0.609		0.625	0.705
NCI-H1793	0.278	0.213	0.272	0.223	0.145	0.802	0.662	0.935	0.77	0.78	0.341	0.458	0.445	0.447	0.42	0.286	0.284	0.323	0.33	0.384
NCI-H1915	0.582	0.507	0.613	0.186	0.0754	1.07	1.06	1.09	1.07	1.06	0.296	0.285	0.328	0.284	0.315	0.527	0.557	0.521	0.486	0.522
NCI-H1944	0.383	0.383	0.449	0.347	0.239	1.1	1.2	1.27	1.19	1.3	0.407	0.391	0.428	0.392	0.398	0.344	0.313	0.34	0.318	0.319
NCI-H1975	0.674	0.624	0.196	0.111	0.106	0.988	0.989	0.99	0.939	0.971	0.407	0.32	0.213	0.352	0.206	0.557	0.55	0.285	0.542	0.177
NCI-H1993	0.508	0.552	0.546	0.47	0.53	0.754	0.772	0.712	0.737	0.623	0.553	0.632	0.574	0.462	0.72	0.703	0.611	0.692	0.693	0.686
NCI-H2009	0.664	0.585	0.486	0.0717	0.084	1.12	1.2	1.19	1.02	0.262	0.32	0.313	0.252	0.304	0.192	0.215	0.224	0.194	0.188	0.123
NCI-H2023	0.464	0.373	0.43	0.0814	0.0616	0.624	0.648	0.635	0.608	0.279	0.59	0.575	0.595	0.362	0.226	0.414	0.361	0.358	0.213	0.218
NCI-H2085	0.684	0.675	0.787	0.286	0.204	0.969	0.85	0.856	0.602	0.523	0.671	0.598	0.582	0.405	0.377	0.472	0.45	0.462	0.482	0.423
NCI-H2087	0.667	0.401	0.224	0.0576	0.0622	0.949	0.773	0.748	0.429	0.264	0.2	0.204	0.22	0.145	0.122	0.212	0.216	0.183	0.231	0.116
NCI-H2126	0.737	0.652	0.622	0.62	0.663	0.684	0.713	0.722	0.712	0.705	0.57	0.493	0.526	0.55	0.546	0.34	0.34	0.376	0.356	0.337
NCI-H2228	0.51	0.674	0.294	0.0867	0.115	0.536	1.03	1.12	0.445	0.448	0.573	0.454	0.576	0.473	0.474	0.609	0.792	0.573	0.525	0.401
NCI-H2347	0.559	0.367	0.291	0.182	0.194	0.915	0.91	0.787	0.91	0.909	0.312	0.305	0.27	0.237	0.277	0.388	0.406	0.393	0.489	0.413
NCI-H2405	0.635	0.589	0.661	0.319	0.205	0.936	1.11		0.866	0.87	0.6	0.746		0.741	0.861	0.578	0.545		0.541	0.434

From the supplement of paper PMC10307832
